Measurements as given in patent US7759345B2, “Antitumoral derivatives of ET-743” (priority 2001, dated 2010).

Legend:
SK-MEL-28 = assay: Inhibition of cells growth by colorimetric assay (SRB), SK-MEL-28; assay type: cell-based; conditions: SRB, 48 hours exposure
In short: (§1)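 Sulforhodamine B protein-stain readout (490 nm) after 48 h drug exposure, with GI, TGI and LC parameters calculated from triplicate means. Cells seeded at 5×10^3 per well, allowed 18 h drug-free attachment; dose range 10 to 10^−8 μg/ml, vehicle DMSO/EtOH/PBS (0.5:0.5:99).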

HMEC1 = assay: Inhibition of cells growth by colorimetric assay (SRB), HMEC1; assay type: cell-based; conditions: SRB, 48 hours exposure
In short: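 Human cancer and endothelial lines are seeded at 5×10^3 cells per well and, after 18 h, treated for 48 h with compound dissolved in DMSO/EtOH/PBS (0.5:0.5:99) at 10 to 10^−8 μg/ml. Cell mass is quantified by SRB staining (OD 490 nm), and growth inhibition, total growth inhibition and cell kill are calculated from triplicate wells.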

LoVo-Dox = assay: Inhibition of cells growth by colorimetric assay (SRB), LoVo-Dox; assay type: cell-based; conditions: SRB, 48 hours exposure
In short: as §1

SK-OV-3 = assay: Inhibition of cells growth by colorimetric assay (SRB), SK-OV-3; assay type: cell-based; conditions: SRB, 48 hours exposure
In short: as §1

K-562 = assay: Inhibition of cells growth by colorimetric assay (SRB), K-562; assay type: cell-based; conditions: SRB, 48 hours exposure
In short: as §1

DU-145 = assay: Inhibition of cells growth by colorimetric assay (SRB), DU-145; assay type: cell-based; conditions: SRB, 48 hours exposure
In short: as §1

SK-BR-3 = assay: Inhibition of cells growth by colorimetric assay (SRB), SK-BR-3; assay type: cell-based; conditions: SRB, 48 hours exposure
In short: as §1

HT-29 = assay: Inhibition of cells growth by colorimetric assay (SRB), HT-29; assay type: cell-based; conditions: SRB, 48 hours exposure
In short: as §1

PANC-1 = assay: Inhibition of cells growth by colorimetric assay (SRB), PANC-1; assay type: cell-based; conditions: SRB, 48 hours exposure
In short: as §1

LNCaP = assay: Inhibition of cells growth by colorimetric assay (SRB), LNCaP; assay type: cell-based; conditions: SRB, 48 hours exposure
In short: as §1

IGROV-1 = assay: Inhibition of cells growth by colorimetric assay (SRB), IGROV-1; assay type: cell-based; conditions: SRB, 48 hours exposure
In short: as §1

LoVo = assay: Inhibition of cells growth by colorimetric assay (SRB), LoVo; assay type: cell-based; conditions: SRB, 48 hours exposure
In short: as §1

IGROV-ET = assay: Inhibition of cells growth by colorimetric assay (SRB), IGROV-ET; assay type: cell-based; conditions: SRB, 48 hours exposure
In short: as §1

A-549 = assay: Inhibition of cells growth by colorimetric assay (SRB), A-549; assay type: cell-based; conditions: SRB, 48 hours exposure
In short: as §1

From the text for Heart: (§2) Toxicity was asssessed by the methods reported in Toxicology in Vitro, 15 (2001) 571-577, J. Luber Narod et al.: “Evaluation of the use of in vitro methodolodies as tools for screening new compounds for potential in vivo toxicity”.
From the text for Kidney: as §2
From the text for Liver: as §2
From the text for Myelo: as §2
From the text for Skeletal: as §2

COc1cc2c(cc1OC)[C@@]1(CS[C@@H]3c4c(OC(C)=O)c(C)c5c(c4[C@H](COC1=O)N1C3[C@H]3c4c(cc(C)c(OC)c4OC)C[C@@H]([C@@H]1O)N3C)OCO5)NCC2 (some centres unmarked) [Compound 87]
GI50 (SK-MEL-28; Homo sapiens, SK-MEL-28, 48 h, MEL-28, read-out: MEL-28 GI50): 19.2 nM | CC50 (SK-MEL-28; Homo sapiens, SK-MEL-28, 48 h, read-out: MEL-28 LC50, MEL-28): 109 nM | MEL-28 TGI (SK-MEL-28; MEL-28): 4.57E-08 | Toxicity Data Heart (Heart): 3.60E-08 | Toxicity Data Liver (Liver): 6.18E-08 | HMEC-1 TGI (HMEC1; HMEC-1): 9.65E-08 | GI50 (HMEC1; Homo sapiens, HMEC-1, 48 h, HMEC-1, read-out: HMEC-1 GI50): 16.7 nM | LC50 (HMEC1; Homo sapiens, HMEC-1, 48 h, read-out: HMEC-1 LC50, HMEC-1): 12700 nM | GI50 (LoVo-Dox; Homo sapiens, 48 h, LOVO-DOX, read-out: LOVO-DOX GI50): 38.7 nM | CC50 (LoVo-Dox; Homo sapiens, 48 h, read-out: LOVO-DOX LC50, LOVO-DOX): 12700 nM | LOVO-DOX TGI (LoVo-Dox; LOVO-DOX): 1.42E-07 | GI50 (SK-OV-3; Homo sapiens, SK-OV-3, 48 h, SK-OV3, read-out: SK-OV3 GI50): 21.6 nM | LC50 (SK-OV-3; Homo sapiens, SK-OV-3, 48 h, read-out: SK-OV3 LC50, SK-OV3): 8990 nM | SK-OV3 TGI (SK-OV-3; SK-OV3): 6.56E-08 | GI50 (K-562; Homo sapiens, K562, 48 h, K-562, read-out: K-562 GI50): 0.871 nM | LC50 (50% cell killing) (K-562; Homo sapiens, K562, 48 h, read-out: K-562 LC50, K-562): 7.15 nM | K-562 TGI (K-562; K-562): 2.96E-09 | DU-145 TGI (DU-145; DU-145): 5.22E-08 | GI50 (DU-145; Homo sapiens, DU-145, 48 h, DU-145, read-out: DU-145 GI50): 13.5 nM | CC50 (DU-145; Homo sapiens, DU-145, 48 h, read-out: DU-145 LC50, DU-145): 180 nM | GI50 (SK-BR-3; Homo sapiens, SK-BR-3, 48 h, SK-BR3, read-out: SK-BR3 GI50): 16.5 nM | CC50 (SK-BR-3; Homo sapiens, SK-BR-3, 48 h, read-out: SK-BR3 LC50, SK-BR3): 101 nM | SK-BR3 TGI (SK-BR-3; SK-BR3): 4.08E-08 | HT-29 TGI (HT-29; HT-29): 1.12E-07 | GI50 (HT-29; Homo sapiens, HT-29, 48 h, HT-29, read-out: HT-29 GI50): 24.4 nM | LC50 (concentration for 50% cell killing) (HT-29; Homo sapiens, HT-29, 48 h, read-out: HT-29 LC50, HT-29): 380 nM | GI50 (PANC-1; Homo sapiens, PANC-1, 48 h, PANC-1, read-out: PANC-1 GI50): 25.3 nM | LC50 (concentration for 50% net cell kill) (PANC-1; Homo sapiens, PANC-1, 48 h, read-out: PANC-1 LC50, PANC-1): 876 nM | PANC-1 TGI (PANC-1; PANC-1): 7.39E-08 | Toxicity Data Kidney (Kidney): 8.09E-08 | GI50 (LNCaP; Homo sapiens, LNCaP, 48 h, read-out: LNCAP GI50, LNCAP): 4.73 nM | CC50 (LNCaP; Homo sapiens, LNCaP, 48 h, read-out: LNCAP LC50, LNCAP): 40.5 nM | LNCAP TGI (LNCaP; LNCAP): 1.12E-08 | GI50 (IGROV-1; Homo sapiens, IGROV-1, 48 h, IGROV, read-out: IGROV GI50): 4.8 nM | CC50 (IGROV-1; Homo sapiens, IGROV-1, 48 h, read-out: IGROV LC50, IGROV): 80.4 nM | IGROV TGI (IGROV-1; IGROV): 1.63E-08 | Toxicity Data Myelo (Myelo): 2.44E-07 | Toxicity Data Skeletal (Skeletal): 2.00E-07 | GI50 (LoVo; Homo sapiens, LoVo, 48 h, LOVO, read-out: LOVO GI50): 22.7 nM | LC50 (concentration for 50% cell killing) (LoVo; Homo sapiens, LoVo, 48 h, read-out: LOVO LC50, LOVO): 123 nM | LOVO TGI (LoVo; LOVO): 5.27E-08 | GI50 (IGROV-ET; Homo sapiens, 48 h, IGROV-ET, read-out: IGROV-ET GI50): 28.4 nM | CC50 (IGROV-ET; Homo sapiens, 48 h, read-out: IGROV-ET LC50, IGROV-ET): 5840 nM | IGROV-ET TGI (IGROV-ET; IGROV-ET): 7.77E-08 | TGI A-549 (A-549; A-549): 4.77E-08 | GI50 (A-549; Homo sapiens, A549, 48 h, A-549, read-out: GI50 A-549): 23.8 nM | LC50 (concentration for 50% cell killing) (A-549; Homo sapiens, A549, 48 h, read-out: A-549 LC50, A-549): 95.8 nM
